pIC50: −log10 of the molar value. Converted amounts (≈) assume the structure as drawn. Like-named read-outs stand apart in the source and are kept apart here.
Key:
enterococci = assay: Minimum inhibitory concentration, microdilution broth method, enterococci; format: cell-based; settings: Mueller-Hinton broth, 18-22 hours at 35° C.; for MIC: Enterococcus faecalis
Summary of the method: (§1)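 Broth microdilution per NCCLS M7-A5 (2000). Staphylococci and enterococci grown in Mueller-Hinton broth; streptococci in Mueller-Hinton broth with 5% horse blood (LHB). Panel includes recent clinical isolates resistant to methicillin, penicillin and/or vancomycin.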

Streptococci = assay: Minimum inhibitory concentration, microdilution broth method, streptococci; format: cell-based; settings: Mueller-Hinton broth with 5% horse blood, 18-22 hours at 35° C.; for MIC: S. pneumo GC 1894
Summary of the method: as §1

[1] = molecular target: T1, S. aureus Enopyruvyl-UPD-N-acetylglucosamine reductase, Mur B (Staphylococcus aureus, UniProt P61431); assay: biochemical; settings: (S) S. aureus enzyme; for IC50: read-out: MurB IC50 (converted)
T1 sequence (P61431 1-307): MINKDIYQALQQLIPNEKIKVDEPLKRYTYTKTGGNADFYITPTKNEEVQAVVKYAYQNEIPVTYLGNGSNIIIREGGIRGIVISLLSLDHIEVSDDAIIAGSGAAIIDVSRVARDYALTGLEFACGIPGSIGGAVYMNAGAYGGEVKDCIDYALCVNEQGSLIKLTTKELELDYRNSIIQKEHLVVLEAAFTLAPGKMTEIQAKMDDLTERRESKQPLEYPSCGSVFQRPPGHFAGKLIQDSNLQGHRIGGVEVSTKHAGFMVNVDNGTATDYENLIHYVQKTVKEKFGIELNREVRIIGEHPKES

[2] = molecular target: E. coli Uridine-diphosphate-N-acetylmuramoyl-L-alanine: D-glutamate liease, MurD (Escherichia coli, UniProt P14900); assay: biochemical; settings: (E) E. coli enzyme
Chain of E. coli Uridine-diphosphate-N-acetylmuramoyl-L-alanine: D-glutamate liease, MurD (P14900 whole entry): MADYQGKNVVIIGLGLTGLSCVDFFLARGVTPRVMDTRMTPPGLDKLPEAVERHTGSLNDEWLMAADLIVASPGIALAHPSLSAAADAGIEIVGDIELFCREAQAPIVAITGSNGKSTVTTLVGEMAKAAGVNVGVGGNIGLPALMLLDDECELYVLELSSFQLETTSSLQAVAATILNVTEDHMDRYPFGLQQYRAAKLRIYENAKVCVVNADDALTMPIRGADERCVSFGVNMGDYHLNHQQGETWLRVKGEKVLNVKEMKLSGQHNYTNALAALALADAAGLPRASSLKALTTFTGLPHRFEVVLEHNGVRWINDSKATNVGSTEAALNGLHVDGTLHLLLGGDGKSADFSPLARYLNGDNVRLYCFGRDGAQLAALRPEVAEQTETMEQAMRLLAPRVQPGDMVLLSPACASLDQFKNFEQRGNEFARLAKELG
Summary of the method: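 Compound working solutions reach 100 μg/mL in 50 mM Tris/HCl (pH 8.5) after dilution of 10 mg/mL DMSO stocks; final level in the well not given here. Reaction buffer finals: 2 mM ATP, 50 mM MgCl2, 83 mM Tris/HCl, pH 8.0.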

[3] = molecular target: E. coli Uridine-diphosphate-N-acetvimuramoyl: L-alanine lipase, MurC (Escherichia coli, UniProt P17952); assay: Inhibitory activity against MurC (E. coli); format: biochemical; settings: (E) E. coli enzyme; for IC50: read-out: MurC IC50 (converted)
Chain of E. coli Uridine-diphosphate-N-acetvimuramoyl: L-alanine lipase, MurC (P17952 whole entry): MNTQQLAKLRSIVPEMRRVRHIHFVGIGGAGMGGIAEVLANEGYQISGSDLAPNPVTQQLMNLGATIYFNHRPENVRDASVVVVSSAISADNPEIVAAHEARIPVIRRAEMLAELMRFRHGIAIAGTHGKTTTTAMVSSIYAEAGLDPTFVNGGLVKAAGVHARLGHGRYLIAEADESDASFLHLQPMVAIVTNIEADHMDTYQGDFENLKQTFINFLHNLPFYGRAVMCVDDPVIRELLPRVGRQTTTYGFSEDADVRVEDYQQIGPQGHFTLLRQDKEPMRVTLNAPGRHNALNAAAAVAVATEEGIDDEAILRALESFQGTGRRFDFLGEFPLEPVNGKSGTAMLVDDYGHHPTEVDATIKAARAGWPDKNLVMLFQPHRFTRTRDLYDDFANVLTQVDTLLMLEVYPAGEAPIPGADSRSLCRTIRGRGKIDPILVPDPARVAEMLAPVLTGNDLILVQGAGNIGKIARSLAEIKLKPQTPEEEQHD

[4] = E. faecalis GC 2242, read-out: MIC E. faecalis GC 2242
[5] = E. faecalis GC 4555, read-out: MIC E. faecalis GC 4555

Structure (SMILES) | MIC (enterococci; [4]) [µg/mL] | MIC (enterococci; [5]) [µg/mL] | MIC (Streptococci) [µg/mL] | IC50 [1] [µM] | pIC50 [2] | IC50 [3] [µM] | MIC E. faecalis GC 2242 (enterococci; E. faecalis GC 2242) [µg/mL] | MIC E. faecalis GC 4555 (enterococci; E. faecalis GC 4555) [µg/mL] | MIC S. pneumo GC 1894 (Streptococci) [µg/mL] | MurB IC50 [1] | MurD IC50 [2] [µg/mL] | MurC IC50 [3] [µg/mL]
Cc1cc(/C=C2\OC(=O)C(c3cccc(Cl)c3)=C2O)ccc1-c1ccccc1C(F)(F)F [Example 26] | 2 (≈ 4.38 µM) | 4 (≈ 8.76 µM) | < 0.125 | 4.38 | – | – | – | – | – | – | – | –
O=C1O/C(=C\c2ccc3ccccc3c2)C(O)=C1c1ccc2ccccc2c1 [Example 52] | 4 (≈ 11 µM) | 8 (≈ 22 µM) | 0.5 (≈ 1.37 µM) | – | 4.20 | 46.7 | – | – | – | – | – | –
COc1ccccc1-c1ccc(/C=C2\OC(=O)C(c3cccc(Cl)c3)=C2O)cc1C [Example 23] | 8 (≈ 19.1 µM) | 8 (≈ 19.1 µM) | 1 (≈ 2.39 µM) | 11.9 | – | – | – | – | – | – | – | –
CN(C)c1ccc(/C=C2\OC(=O)C(c3ccc(C(F)(F)F)cc3)=C2O)c2ccccc12 [Example 81] | 16 (≈ 37.6 µM) | 32 (≈ 75.2 µM) | 1 (≈ 2.35 µM) | 35.3 | – | – | – | – | – | – | – | –
Cc1cc(C=C2OC(=O)C(c3cc(Cl)cc(Cl)c3)=C2O)ccc1-c1ccccc1Cl [Example 31] | – | – | – | – | – | – | 1 (≈ 2.18 µM) | 2 (≈ 4.37 µM) | 0.25 (≈ 0.546 µM) | 2 (E); 2 (S) μg/mL | – | –
O=C1O/C(=C\C2CCCCC2)C(O)=C1c1ccc(Cl)cc1 [Example 15] | 32 (≈ 105 µM) | 64 (≈ 210 µM) | 0.5 (≈ 1.64 µM) | – | < 4.09 | 55.8 | – | – | – | – | – | –
O=C1O/C(=C\c2ccc(N3CCOCC3)c3ccccc23)C(O)=C1c1cc(Cl)cc(Cl)c1 [Example 38] | 16 (≈ 34.2 µM) | 32 (≈ 68.3 µM) | 1 (≈ 2.14 µM) | 17.1 | – | – | – | – | – | – | – | –
O=C1O/C(=C\c2ccc3ccccc3c2)C(O)=C1c1ccc(Cl)cc1 [Example 54] | 4 (≈ 11.5 µM) | 32 (≈ 91.7 µM) | < 0.125 | – | < 4.14 | 14.3 | – | – | – | – | – | –
O=C1O/C(=C\c2ccc(-c3cccc(C(F)(F)F)c3)cc2)C(O)=C1c1cccc(C(F)(F)F)c1 | – | – | – | – | – | – | 1 (≈ 2.1 µM) | 4 (≈ 8.4 µM) | <0.125 | – | 24 | 11
Cc1ccc(C=C2OC(=O)C(c3ccc(Cl)cc3)=C2O)s1 [Example 14] | – | – | – | – | – | – | 64 (≈ 201 µM) | 4 (≈ 12.5 µM) | 64 (≈ 201 µM) | – | – | 13
Cc1ccc(C=C2OC(=O)C(c3ccc(Cl)cc3)=C2O)s1 (mixture of isomers) [Example 13] | – | – | – | – | – | – | >128 | >128 | 2 | – | > 25 | 4
O=C1O/C(=C\c2ccc(-c3ccccc3)cc2)C(O)=C1c1cccc(C(F)(F)F)c1 [Example 10] | 1 (≈ 2.45 µM) | 8 (≈ 19.6 µM) | < 0.125 | – | 4.29 | 9.79 | – | – | – | – | – | –
O=C1OC(=CC2CCCCC2)C(O)=C1c1cccc(C(F)(F)F)c1 [Example 16] | – | – | – | – | – | – | 64 (≈ 189 µM) | 64 (≈ 189 µM) | 0.5 (≈ 1.48 µM) | – | – | 7
O=C1O/C(=C\c2ccc(-c3cc(Cl)cc(Cl)c3)cc2)C(O)=C1c1cc(Cl)cc(Cl)c1 | 0.5 (≈ 1.05 µM) | 1 (≈ 2.09 µM) | < 0.125 | – | – | – | – | – | – | – | 6 | 17
O=C1O/C(=C\c2ccc(-c3ccccc3)cc2)C(O)=C1c1ccc(Cl)cc1 [Example 53] | 4 (≈ 10.7 µM) | 8 (≈ 21.3 µM) | 0.5 (≈ 1.33 µM) | – | 4.87 | 13.3 | – | – | – | – | – | –
O=C1O/C(=C\c2ccc(-c3ccccc3)cc2)C(O)=C1c1cc(Cl)cc(Cl)c1 [Example 67] | 0.5 (≈ 1.22 µM) | 2 (≈ 4.89 µM) | < 0.125 | – | 4.66 | 14.7 | – | – | – | – | – | –
O=C1O/C(=C\c2ccc(-c3ccccc3)cc2)C(O)=C1c1cccc(Cl)c1 [Example 69] | 0.5 (≈ 1.33 µM) | 0.5 (≈ 1.33 µM) | 0.25 (≈ 0.667 µM) | – | 4.30 | – | – | – | – | – | – | –
O=C1O/C(=C\C2CCCCC2)C(O)=C1c1ccc2ccccc2c1 [Example 51] | 8 (≈ 25 µM) | 32 (≈ 99.9 µM) | < 0.125 | – | < 4.11 | – | – | – | – | – | – | 9
O=C1O/C(=C\C2CCCCC2)C(O)=C1c1ccc(-c2ccccc2)cc1 [Example 100] | > 128 | > 128 | 64 (≈ 185 µM) | – | < 4.14 | 37.5 | – | – | – | – | – | –
